These are literature values, as cited in patent US8287898B2, “Compositions and methods for body weight management” (The Procter & Gamble Company, priority 2000, dated 2012).

For data set [1] the following is noted: jejunally infused neat, 0.2 mL/hr for seven hours, rats.
For data set [2] the following is noted: sham feeding rat model.
The conditions of data set [3]: solutions infused in the duodenum or mid-gut (jejunum), or into the colon; rats, three hours of feeding.

Like-named read-outs stand apart in the source and are kept apart here.

Take `CCCCC/C=C\C/C=C\CCCCCCCC(=O)O` [linoleic acid]: the “total daily caloric intake” value in data set [1] is “significantly reduce”. The figures for the total caloric intake entry in data set [2] (duodenally infused emulsion) and in data set [2] (ileal infusion) were “reduce total caloric intake” and “do not”, respectively. On to `CC/C=C\C/C=C\C/C=C\CCCCCCCC(=O)O` [linolenic], for which the total caloric intake result in data set [2] (duodenally infused emulsion) is “somewhat less effective”. As to `CCCCCCCC/C=C\CCCCCCCC(=O)O` [oleic acid], the “total daily caloric intake” value in data set [1] was “significantly reduce”. Moreover, the total caloric intake entry in data set [2] (duodenally infused emulsion) was “somewhat less effective”.

Regarding `N[C@@H](Cc1ccccc1)C(=O)O` [phenylalanine], in data set [3], the total caloric intake entry is recorded as “suppressed total caloric intake”. For `N[C@@H](Cc1c[nH]c2ccccc12)C(=O)O` [tryptophan], the total caloric intake result in data set [3] is recorded as “suppressed total caloric intake”.
